Consider seven compounds from patent publication US8518979B2, “Alpha-halo- and alpha-alkyl-cyclopropylcarboxy compounds and uses thereof” (Yissum Research Development Company of the Hebrew …, priority 2007, dated 2013).

Data set [1] has as its system metrazole induced clonic seizures. As to conditions: cited from earlier work; for protective index (TD50/ED50): comparison compounds, seizure model not stated.
The subject of data set [2] is maximal electroshock induced seizures (tonic hind limb extension). To be noted: cited from earlier work.
The next data set deals with neuropathic pain. As to conditions: spinal nerve ligated rat models; cited from earlier work.
For data set [3], the system named is minimal neurotoxicity. As to conditions: cited from earlier work.
Data set [4] concerns minimal neurotoxicity. Briefly: Neurotoxicity (gait and stance assay, TD50) in rats. It is filed as in vivo, rat. As to conditions: for Toxicity, fraction of rats: rat p.o, 50 mg/kg. On the procedure: (§1) Neurotoxicity assays are design to assess the effect of putative neurotoxicants on the normal activity of the nervous system, which can adversely disrupt or cause neuronal death, and damage other parts of the nervous system. The median neurological toxic dose (TD50) is used for quantization of neurotoxicity.
The neurotixicity studies were conducted according to the protocol described in White, H. S., et al., in “General principles. Discovery and preclinical development of antiepileptic drugs”, 5th edition, Levy R H, Mattson R H, Meldrum B S, Perucca E. (editors); Antiepileptic drugs; Lippincott-Raven; Philadelphia: 2002. pp. 36-48.
Neurotoxicity of the α-halo-2,2,3,3-tetramethylcyclopropanecarboxy compounds of the present embodiments was assessed in rats treated therewith by oral administration and observed in the “gait and stance” assay, which assesses minimal neurotoxicity. The neurotoxicity studies were conducted according to the protocol described in White H S. et al., General principles-Discovery and preclinical development of antiepileptic drugs, in: Antiepileptic Drugs, 5th edition, R H Wilkins, Philadelphia 2002, pp. 36-48.

Data set [5] concerns maximal electroshock induced seizures (tonic hind limb extension). The data set is described as follows: Maximal electroshock seizure test (MES) in rats. Type of data set: in vivo. To be noted: rat p.o, 50 mg/kg.
The test system of data set [6] is metrazole induced clonic seizures. The data set is described as follows: Subcutaneous metrazol seizure threshold test (scMet) in rats. As to conditions: for ED50: Rattus norvegicus; for ScMet, fraction of rats: rat p.o, 50 mg/kg; for Fraction of rats which responded to the treatment: scMet rat model.
Data set [7] relates to hippocampal kindled seizures. The data set is described as follows: Hippocampal kindling assay in rats. Type of data set: in vivo. To be noted: Rattus norvegicus. On the procedure: In a third model, the hippocampal kindling assay was used to identify new drug candidates effective for the treatment of difficult-to-control seizure types, focal seizures and complex partial seizures, as well as compounds that may be effective as mood stabilizer for treating bipolar disorder, and was conducted according to the protocol described therein.
Briefly, this test was conducted by using a bipolar stimulating electrode which was implanted in the hippocampus of rats, and the rats were kindled according to a described method. One week after implantation of the electrodes, the rats were stimulated with supra-threshold trains of 200 μA and 50 Hz for 10 seconds every 30 minutes for 6 hours on alternate days until the animals were fully kindled. […] The behavioral seizures were scored according to the following criteria (“seizure score”): stage 1—mouth and facial clonus; stage 2—stage 1 plus head nodding; stage 3—stage 2 plus forelimb clonus; stage 4—stage 3 plus rearing; and stage 5—stage 4 plus repeated rearing and falling.

In the next data set the test system is 6 Hz (32 mA) seizures. Briefly: Psychomotor seizure (6 Hz, 32 mA) assay in mice. It is filed as in vivo. To be noted: Mus musculus.
For the next data set, the system named is motor impairment. Briefly: Toxicity observed in mice (6 Hz 44 mA test line of Table 3). It is filed as in vivo.
Source text: as §1

The subject of another data set is 6 Hz (44 mA) seizures. The data set is described as follows: Psychomotor seizure (6 Hz, 44 mA) assay in mice. Type of data set: in vivo. To be noted: Mus musculus.
The subject of data set [8] is maximal electroshock induced seizures. To be noted: mice models injected intraperitoneally; cited from earlier work.
For the next data set, the system named is teratogenicity. The data set is described as follows: Mouse model for VPA-induced teratogenicity. To be noted: unpublished results.
Where [9] appears, read: rat scMet models, literature comparison.

“And” between values parts separate entries of the source, which are not always exact repeats. Equal values may be shown once. Read-outs that look alike come from different tables or passages of the source. Some results are limits rather than exact numbers.

On to `CONC(=O)C1C(C)(C)C1(C)C` [Compound VI, N-methoxy-2,2,3,3-tetramethylcyclopropanecarboxamide], for which the ED50 (in general, the dose at which the effect has come halfway, by size or by number of responders) in data set [1] (scMet tests, rats injected intraperitoneally) was 9.8 mg/kg; in data set [2] (MES tests, rats injected intraperitoneally), 57 mg/kg.
In the case of `CNC(=O)C1C(C)(C)C1(C)C` [Compound IV, N-methyl-2,2,3,3-tetramethylcyclopropanecarboxamide], in the data set on neuropathic pain, the “potency as therapeutic for neuropathic pain” value is recorded as “equipotent to GABApentin”. Moreover, in the data set on minimal neurotoxicity [3] (rat, in vivo), the neurotoxicity result is given as “non-neurotoxic”. Further, the “protective index (TD50/ED50)” value in [1] was 2.
For `CC1(C)C(C(=O)NC(N)=O)C1(C)C` [TMC-Urea, 2,2,3,3-tetramethylcyclopropanecarbonyl urea], the “protective index (TD50/ED50)” value in data set [1] was 18.5. Also, the ED50 in data set [1] (setting [9]) is recorded as 92 mg/kg. Moreover, the “protective index, TD50-to-ED50 ratio” value in data set [2] (maximal electroshock (MES) tests) is given as 18.5.
On to `CC1(C)C(C)(C)C1(C)C(N)=O` [Compound 4, 1,2,2,3,3-pentamethylcyclopropanecarboxamide], for which the “Toxicity, fraction of rats” value in the data set with minimal neurotoxicity [4] (0.25 hours after dosing), in the data set on minimal neurotoxicity [4] (0.5 hours after dosing), in the data set with minimal neurotoxicity [4] (1.0 hours after dosing), in the data set with minimal neurotoxicity [4] (2.0 hours after dosing) and in the data set on minimal neurotoxicity [4] (4.0 hours after dosing) was 0/4 in each case. The “MES, fraction of rats” value in data set [5] (0.25 hours after dosing), in data set [5] (0.5 hours after dosing), in data set [5] (1.0 hours after dosing), in [5] (2.0 hours after dosing) and in data set [5] (4.0 hours after dosing) was 0/4 each time. Also, the ED50 in data set [6] (sc, read-out: ED50 (not determined quantitatively, estimated)) is less than 50 mg/kg. Moreover, the “ScMet, fraction of rats” value is given as 0/4 in data set [6] (0.25 hours after dosing); 0/4 in [6] (0.5 hours after dosing); 1/4 in data set [6] (1.0 hours after dosing); 1/4 in data set [6] (2.0 hours after dosing); 0/4 in [6] (4.0 hours after dosing).
As to `CC1(C)C(C)(C)C1(F)C(N)=O` [Compound 1, α-fluoro-2,2,3,3-tetramethylcyclopropanecarboxamide], the ED50 is 29.5 mg/kg and 180 µmol/kg in data set [7]; < 50 mg/kg and < 310 µmol/kg in the data set with 6 Hz (32 mA) seizures; 6 mg/kg and 40 µmol/kg in data set [6] (po); ~50 mg/kg and ~310 µmol/kg in the data set with 6 Hz (44 mA) seizures. For the same compound, the “Toxicity (TD50)” value in the data set with minimal neurotoxicity [4] (rats, oral administration) is given as 117 mg/kg. Besides, the “protective index (TD50/ED50)” value in data set [6] (rat, in vivo, po) came out at 19.5. Also, the “Fraction of rats which responded to the treatment” value in data set [6] (dose 2 mg/kg) is 0/8; in [6] (dose 6 mg/kg), 5/8; in data set [6] (dose 12.5 mg/kg), 6/8; in data set [6] (dose 25 mg/kg) it was 8/8. Moreover, in the data set on motor impairment, the Toxicity entry was “Minimal motor”.
On to `CC1(C)C(C(=O)Nc2nnc(S(N)(=O)=O)s2)C1(C)C` [Compound VII, N-(1,3,4-thiadiazole-2-sulfonamide)-2,2,3,3-tetramethylcyclopropanecarboxamide], for which the MES-ED50 was 17 mg/kg in data set [8] and 9.2 mg/kg in [2] (orally treated rat models). For the same compound, the teratogenicity result with teratogenicity was “teratogenic”. Also, the neurotoxicity result in the data set with minimal neurotoxicity [3] (at 500 mg/kg doses) is listed as “none-neurotoxic”.
Take `CC1(C)C(C(=O)NCC(N)=O)C1(C)C` [N-2,2,3,3-tetramethylcyclopropylcarbonyl-glycinamide]: the TD50 result in the data set on minimal neurotoxicity [3] (oral administration to rats, literature comparison) is on record as “above 500 mg/kg”. The “protective index (TD50/ED50)” value in data set [1] is given as “higher than 6.1”. In data set [1] (setting [9]), the ED50 entry is given as “greater than 250 mg/kg”.
